According to BindingDB's records for PubMed 35123298 (Comsats University Islamabad, 2022):

Experiments:
[1] = Negative allosteric modulation activity at human P2X4 receptor expressed in human 1321N1 cells assessed as ATP induced calcium response by measuring ATP EC50 at 100 nM
[2] = Negative allosteric modulation activity at human P2X4 receptor expressed in human 1321N1 cells assessed as ATP induced calcium response by measuring ATP EC50 at 200 nM
[3] = Negative allosteric modulation activity at human P2X4 receptor expressed in human 1321N1 cells assessed as ATP induced calcium response by measuring ATP EC50 at 40 nM
[4] = Negative allosteric modulation activity at human P2X7 receptor expressed in human 1321N1 cells assessed as ATP induced calcium response by measuring ATP EC50 at 200 nM
[5] = Negative allosteric modulation activity at human P2X7 receptor expressed in human 1321N1 cells assessed as ATP induced calcium response by measuring ATP EC50 at 100 nM
[6] = Negative allosteric modulation activity at human P2X7 receptor expressed in human 1321N1 cells assessed as ATP induced calcium response by measuring ATP EC50 at 40 nM

EC50 [1] [µM] | EC50 [2] [µM] | EC50 [3] [µM] | EC50 [4] [µM] | EC50 [5] [µM] | EC50 [6] [µM] | Structure (SMILES)
8.96 | 12.2 | 10.1 |  |  |  | CC(C)c1ccc(NC(=S)NC(=O)C23CC4CC(CC(C4)C2)C3)c(Br)c1
 |  |  | 2.19 | 6.08 | 6.62 | O=C(NC(=S)Nc1cccc2cccnc12)C12CC3CC(CC(C3)C1)C2
